Experimental data from ChEMBL document CHEMBL5241112, “Insights into the recent progress in the medicinal chemistry of pyranopyrimidine analogs” (RSC Med Chem, 2022).
Values after ≈ are worked out from the molar mass of the structure shown.

Assays:
Staphylococcus aureus [1] = experiment: Antimicrobial activity against Staphylococcus aureus assessed as diameter of inhibition zone at 1 mg/ml incubated for 48 hrs by agar disk diffusion method; type: functional; details: read-out: DIZ
Pseudomonas aeruginosa [2] = experiment: Antimicrobial activity against Pseudomonas aeruginosa assessed as diameter of inhibition zone at 1 mg/ml incubated for 48 hrs by agar disk diffusion method; type: functional; details: read-out: DIZ
Bacillus cereus [3] = experiment: Antimicrobial activity against Bacillus cereus assessed as diameter of inhibition zone at 1 mg/ml incubated for 48 hrs by agar disk diffusion method; type: functional; details: read-out: DIZ
Penicillium chrysogenum = experiment: Antifungal activity against Penicillium chrysogenum assessed as diameter of inhibition zone at 1 mg/ml incubated for 72 to 91 hrs by agar disk diffusion method; type: functional; details: time 72-91 hrs, read-out: DIZ
Klebsiella pneumoniae [4] = experiment: Antimicrobial activity against Klebsiella pneumoniae assessed as diameter of inhibition zone at 1 mg/ml incubated for 48 hrs by agar disk diffusion method; type: functional; details: read-out: DIZ
Escherichia coli [5] = experiment: Antimicrobial activity against Escherichia coli assessed as diameter of inhibition zone at 1 mg/ml incubated for 48 hrs by agar disk diffusion method; type: functional; details: read-out: DIZ
Aspergillus niger [6] = experiment: Antifungal activity against Aspergillus niger assessed as diameter of inhibition zone at 1 mg/ml incubated for 72 to 91 hrs by agar disk diffusion method; type: functional; details: time 72-91 hrs, read-out: DIZ
[7] = test system: Mycobacterium tuberculosis; experiment: Antitubercular activity against Mycobacterium tuberculosis H37Rv assessed as bacterial growth inhibition at 250 ug/ml; type: functional
[8] = test system: Mycobacterium tuberculosis; experiment: Antitubercular activity against Mycobacterium tuberculosis H37Rv assessed as bacterial growth inhibition at 100 ug/ml; type: functional
HeLa = experiment: Anticancer activity against human HeLa cells assessed as reduction in cell viability incubated for 48 hrs by MTT assay; type: functional, cell-based
MCF7 = experiment: cells; details: Homo sapiens, MCF7, 48 h
Urease = Urease (Canavalia ensiformis, UniProt P07374); experiment: Inhibition of jack bean urease by phenol red method
Pseudomonas aeruginosa [9] = experiment: Antibacterial activity against Pseudomonas aeruginosa assessed as bacterial growth inhibition by broth microdilution method; type: functional
Staphylococcus aureus [10] = experiment: Antibacterial activity against Staphylococcus aureus assessed as bacterial growth inhibition by broth microdilution method; type: functional
Candida albicans [11] = experiment: Antifungal activity against Candida albicans assessed as fungal growth inhibition by broth microdilution method; type: functional
Klebsiella pneumoniae [12] = experiment: Antibacterial activity against Klebsiella pneumoniae assessed as bacterial growth inhibition by broth microdilution method; type: functional
Escherichia coli [13] = experiment: Antibacterial activity against Escherichia coli assessed as bacterial growth inhibition by broth microdilution method; type: functional
Aspergillus flavus [14] = experiment: Antifungal activity against Aspergillus flavus assessed as fungal growth inhibition by broth microdilution method; type: functional
Candida albicans [15] = experiment: Antifungal activity against Candida albicans assessed as inhibition of fungal growth; type: functional
Aspergillus niger [16] = experiment: Antifungal activity against Aspergillus niger assessed as inhibition of fungal growth; type: functional
Aspergillus flavus [17] = experiment: Antifungal activity against Aspergillus flavus assessed as inhibition of fungal growth; type: functional
Capra hircus = organism: Capra hircus; experiment: Inhibition of goat lens AR at 100 uM incubated for 10 mins in presence of NADPH by spectroscopic analysis
Bacillus cereus [18] = experiment: Antimicrobial activity against Bacillus cereus ATCC14579 assessed as diameter of inhibition zone at 20 mg/ml incubated for 24 hrs by disk diffusion method; type: functional; details: read-out: DIZ
Escherichia coli [19] = experiment: Antibacterial activity against Escherichia coli assessed as diameter of inhibition zone; type: functional
Bacillus subtilis = experiment: Antibacterial activity against Bacillus subtilis assessed as diameter of inhibition zone; type: functional
Staphylococcus aureus [20] = experiment: Antibacterial activity against Staphylococcus aureus assessed as diameter of inhibition zone; type: functional
Staphylococcus aureus [21] = experiment: Antimicrobial activity against Staphylococcus aureus NCTC7447 assessed as diameter of inhibition zone at 20 mg/ml incubated for 24 hrs by disk diffusion method; type: functional; details: read-out: DIZ
Pseudomonas aeruginosa [22] = experiment: Antimicrobial activity against Pseudomonas aeruginosa ATCC 27853 assessed as diameter of inhibition zone at 20 mg/ml incubated for 24 hrs by disk diffusion method; type: functional; details: read-out: DIZ
Klebsiella pneumoniae [23] = experiment: Antimicrobial activity against Klebsiella pneumoniae UC57 assessed as diameter of inhibition zone at 20 mg/ml incubated for 24 hrs by disk diffusion method; type: functional; details: read-out: DIZ
Salmonella typhimurium = experiment: Antibacterial activity against Salmonella typhimurium assessed as diameter of inhibition zone; type: functional, Salmonella enterica subsp. enterica serovar Typhimurium
Escherichia coli [24] = experiment: Antimicrobial activity against Escherichia coli ATCC 14169 assessed as diameter of inhibition zone at 20 mg/ml incubated for 24 hrs by disk diffusion method; type: functional; details: read-out: DIZ

Urease, sequence (P07374 whole entry): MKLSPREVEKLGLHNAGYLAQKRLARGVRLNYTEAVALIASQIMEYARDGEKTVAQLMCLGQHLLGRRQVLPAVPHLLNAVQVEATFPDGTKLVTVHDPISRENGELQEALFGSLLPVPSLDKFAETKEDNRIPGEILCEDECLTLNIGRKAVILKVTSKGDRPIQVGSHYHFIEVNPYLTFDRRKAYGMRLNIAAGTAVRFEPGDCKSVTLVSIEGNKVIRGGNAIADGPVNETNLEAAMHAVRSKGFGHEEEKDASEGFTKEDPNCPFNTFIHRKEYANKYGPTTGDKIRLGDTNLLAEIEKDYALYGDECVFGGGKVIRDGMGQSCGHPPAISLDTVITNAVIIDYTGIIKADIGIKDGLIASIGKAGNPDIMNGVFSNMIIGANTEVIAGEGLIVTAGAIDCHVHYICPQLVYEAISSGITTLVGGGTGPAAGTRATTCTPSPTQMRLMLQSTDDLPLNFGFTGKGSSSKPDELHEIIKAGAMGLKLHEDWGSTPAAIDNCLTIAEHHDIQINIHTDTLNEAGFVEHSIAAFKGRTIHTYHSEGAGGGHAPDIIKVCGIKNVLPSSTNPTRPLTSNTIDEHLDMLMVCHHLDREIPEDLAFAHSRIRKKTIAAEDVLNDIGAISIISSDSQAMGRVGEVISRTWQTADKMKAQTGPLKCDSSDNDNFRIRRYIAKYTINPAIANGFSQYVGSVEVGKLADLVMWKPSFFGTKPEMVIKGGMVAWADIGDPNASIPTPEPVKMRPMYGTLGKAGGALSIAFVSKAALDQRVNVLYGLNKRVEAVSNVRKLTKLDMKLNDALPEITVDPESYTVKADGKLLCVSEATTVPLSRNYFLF

COC(=O)C1=C(N)Oc2[nH]c(=S)[nH]c(=O)c2C1c1ccc([N+](=O)[O-])cc1 (stereo not drawn)
zone of inhibition at 1000 µg/mL (Staphylococcus aureus [1]): 17 mm
zone of inhibition at 1000 µg/mL (Pseudomonas aeruginosa [2]): 20 mm
zone of inhibition at 1000 µg/mL (Bacillus cereus [3]): 21 mm
zone of inhibition at 1000 µg/mL (Penicillium chrysogenum): 12 mm
zone of inhibition at 1000 µg/mL (Klebsiella pneumoniae [4]): 17 mm
zone of inhibition at 1000 µg/mL (Escherichia coli [5]): 17 mm
zone of inhibition at 1000 µg/mL (Aspergillus niger [6]): 23 mm

CO[C@H]1/C=C/O[C@@]2(C)Oc3c(C)c(O)c4c(O)c(c(/C=N/N5CCN(C)CC5)c(O)c4c3C2=O)NC(=O)/C(C)=C\C=C\[C@H](C)[C@H](O)[C@@H](C)[C@@H](O)[C@@H](C)[C@H](OC(C)=O)[C@@H]1C [RIFAMPIN]
inhibition at 250 µg/mL [7]: 98%
inhibition at 100 µg/mL [8]: 98%

O=C1Nc2c(c(=O)oc3ccccc23)C(c2ccc(O)cc2)N1 (stereo not drawn)
IC50 (HeLa): 38 µM
IC50 (MCF7): 38 µM

CN1C(=O)C2C(c3ccccc3)C(C#N)=C(N)OC2N(C)C1=O (stereo not drawn)
IC50 (Urease): 98.8 µM

CCO/C=N/C1=C(C#N)C(c2cc(OC)ccc2OC)c2c(n(C)c(=O)n(C)c2=O)O1 (stereo not drawn)
MIC (Pseudomonas aeruginosa [9]): 6.25 µg/mL (≈ 14.7 µM)
MIC (Staphylococcus aureus [10]): 6.25 µg/mL (≈ 14.7 µM)
MIC (Candida albicans [11]): 3.12 µg/mL (≈ 7.32 µM)
MIC (Klebsiella pneumoniae [12]): 6.25 µg/mL (≈ 14.7 µM)
MIC (Escherichia coli [13]): 6.25 µg/mL (≈ 14.7 µM)
MIC (Aspergillus flavus [14]): 3.12 µg/mL (≈ 7.32 µM)

CCC1C(C#N)=C(N)Oc2[nH]c(=O)[nH]c(=O)c21 (stereo not drawn)
MIC (Candida albicans [15]): 125 µg/mL (≈ 534 µM)
MIC (Aspergillus niger [16]): 162 µg/mL (≈ 694 µM)
MIC (Aspergillus flavus [17]): 150 µg/mL (≈ 640 µM)

CCO/C=N/C1=C(C#N)C(c2ccc(Cl)cc2)c2c(n(C)c(=O)n(C)c2=O)O1 (stereo not drawn)
MIC (Pseudomonas aeruginosa [9]): 6.25 µg/mL (≈ 15.6 µM)
MIC (Staphylococcus aureus [10]): 6.25 µg/mL (≈ 15.6 µM)
MIC (Candida albicans [11]): 3.12 µg/mL (≈ 7.78 µM)
MIC (Klebsiella pneumoniae [12]): 6.25 µg/mL (≈ 15.6 µM)
MIC (Escherichia coli [13]): 6.25 µg/mL (≈ 15.6 µM)
MIC (Aspergillus flavus [14]): 3.12 µg/mL (≈ 7.78 µM)

O=c1c(O)c(-c2ccc(O)c(O)c2)oc2cc(O)cc(O)c12
inhibition (Capra hircus): 92%

N#CC1=C(N)Oc2[nH]c(=O)[nH]c(=O)c2C1c1ccc(Br)cc1 (stereo not drawn)
zone of inhibition at 20000 µg/mL (Bacillus cereus [18]): 4 mm
IC50 (Urease): 51.3 µM
diameter of the inhibition zone (DIZ) (Escherichia coli [19]): 12 mm
diameter of the inhibition zone (DIZ) (Bacillus subtilis): 14 mm
diameter of the inhibition zone (DIZ) (Staphylococcus aureus [20]): 18 mm
zone of inhibition at 20000 µg/mL (Staphylococcus aureus [21]): 12 mm
zone of inhibition at 20000 µg/mL (Pseudomonas aeruginosa [22]): 4 mm
zone of inhibition at 20000 µg/mL (Klebsiella pneumoniae [23]): 3 mm
diameter of the inhibition zone (DIZ) (Salmonella typhimurium): 16 mm
zone of inhibition at 20000 µg/mL (Escherichia coli [24]): 6 mm
